Measurements from patent US10385003B2, “Ophthalmic formulation” (priority 2011, dated 2019).
“Also recorded” adds a separate entry of the source. Read-outs that look alike come from different tables or passages of the source. Each block holds one molecule with its values, some of them ahead of it.

Experiments:
[1] = Surface pressure-area (Π-A) measurements of pure lipid films on a Langmuir-Blodgett minitrough (Example 5, FIG. 1); format: physicochemical; details: pure film at air-buffer interface, 20° C. and 34° C.
Method: (§1) The physico-chemical properties of certain wax esters, meibomian lipids, and compounds of formula (I) alone or mixed with human meibum were characterized on a Langmuir-Blodgett minitrough by means of surface pressure-area (Π-A) measurements.
(§2) A buffer (NaCl: 6.63 g/L, KCl: 1.72 g/L, NaHCO3: 1.38 g/L, CaCl2.2H2O: 0.15 g/L, NaH2PO4.H2O: 0.10 g/L and MOPS: 4.18 g/L dissolved in MilliQ water) was added to a double barrier minitrough (Nima Technology Ltd, UK; Working surface area 15 cm^2−80 cm^2). Purified preparations of wax esters in chloroform (1 mg/mL), meibomian lipids in chloroform (1 mg/mL), and compounds of formula (I) in chloroform (ranging from 1.4 μmol to 0.1 μmol) alone or mixed with human meibum at different ratios, were spread on the surface (air-buffer interface) of the buffer subphase. Dynamic Π-A profiles of films at the air-buffer interface of the Langmuir trough were collected using software supplied by NIMA Technology. Surface pressure was monitored using a paper plate connected to a Wilhelmy balance. Compression and expansion cycles were conducted over an area (A) of 79 cm^2−16 cm^2 at a barrier rate of 15 cm^2/min and at a temperature of 20° C. and 34° C.
This is indicated by the take-off moving to the left of the x-axis (indicating collapse), whereas the take-off for the compounds of formula (I) remains constant.

[2] = Π-A and pressure/time measurements of meibomian lipid films mixed with compounds of formula (I) (Example 5, FIG. 2); format: physicochemical, human
Method: as §1, §2
Adding a small amount of a compound of formula (I) causes fast stabilisation of the film (indicated on the pressure/time curve with the mixture having little change between isocycles) and the maximum surface pressures are much higher.

[3] = Fluorescence microscopy of meibum mixed films during pressure-area isocycles (Example 6, FIG. 6); format: physicochemical, human; details: NBD-DPPC doped meibum, 20° C.
Method: (§3) Freshly synthesised (O-oleoyl)-ω-hydroxypalmitic acid (an example of a compound of formula (I)) was spread either alone or mixed with human meibum on a Langmuir trough on an artificial tear buffer. Pressure-area isocycle profiles were recorded and compared with those of palmityl oleate and oleic acid, alone or mixed with meibum. These measurements were accompanied by fluorescence microscopy of meibum mixed films during pressure-area isocycles.
Collection of meibomian lipids was in accordance with the Tenets of Helsinki. Human meibomian lipids were gently squeezed out of the meibomian glands of a single subject's lower eyelids by applying pressure to the eyelids using sterile cotton swabs on either side of the lid. Multiple collections were carried out and pooled to provide consistency in the experiments. The subject was devoid of any external signs or symptoms of ocular pathology including dry eye disease. […]
Micrographs comparing the appearance of pure meibomian lipid films (Row A) with meibomian lipids mixed with the (O-oleoyl)-ω-hydroxypalmitic acid (Row B), palmityl oleate (Row C) or oleic acid (Row D) at 20° C. […] Although not quantitatively verified, the darker patches appeared to be more prevalent in the mixed films of palmityl oleate and oleic acid than for pure meibomian lipid films.

[4] = Π-A isocycles of human meibum films mixed with model lipids (Example 6, FIG. 5); format: physicochemical; details: for change of Πmax in subsequent isocycles: meibum 20 μg mixed with lipid, 20° C.; for Πmax in the first isocycle versus meibomian lipid films alone: meibum 20 μg mixed with −10 mol % lipid, spread at 20° C.
Method: as §3
Collection of meibomian lipids was in accordance with the Tenets of Helsinki. Human meibomian lipids were gently squeezed out of the meibomian glands of a single subject's lower eyelids by applying pressure to the eyelids using sterile cotton swabs on either side of the lid. Multiple collections were carried out and pooled to provide consistency in the experiments. The subject was devoid of any external signs or symptoms of ocular pathology including dry eye disease. The expressed lipids were harvested using a sterile stainless steel spatula and dissolved in chloroform. The meibomian lipids were dried through vacuum concentration and centrifugation, and then reconstituted in chloroform spiked with 0.5% (w/w) of the fluorophore, 1-palmitoyl-2-[12-[(7-nitro-2-1,3-benzoxadiazol-4-yl)amino]dodecanoyl]-sn-glycero-3-phosphatidylcholine] (NBD-DPPC) (Avanti Polar Lipids, Auspep Pty. Ltd (Tullamarine, Australia)) and stored at −20° C. until used.
The results were compared with mixtures with meibomian lipids. Human meibum (20 μg) was mixed with −10 mol % (O-oleoyl)-ω-hydroxypalmitic acid (2 μg) or with palmityl oleate (1.9 μg) or oleic acid (1.1 μg). These mixtures were spread at 20° C. and 5 isocycles carried out. The film was then heated to 35° C. for another 5 isocycles. The Π-A curves were compared with those for pure meibomian lipid films. In some cases, meibomian lipids doped with 0.5% (w/w) NBD-DPPC were used in order to view the films microscopically.
In general, meibomian films were very tolerant to the changes in their composition, indicated by the fact that the shapes of the different Π-A curves of mixed films were similar to those obtained from films of pure meibomian lipids (FIG. 5). […] Meibum containing fluorophore was spread on artificial tear buffer alone or pre-mixed with each of (O-oleoyl)-ω-hydroxypalmitic acid, palmityl oleate, or oleic acid were spread at 20° C. on the trough. After five isocycles, the trough was heated to 35° C. and five more isocycles were carried out. Then the trough was cooled back to 20° C. and again five more isocycles were run.

[5] = Π-A isocycles of equimolar pure lipid films on artificial tear buffer, Langmuir trough (Example 6, FIG. 4); format: physicochemical; details: for change of maximum surface pressure (Πmax) with increasing isocycles / change of Π-A profile / take-off through repeated isocycles: 7.5 nmol pure film; for change of maximum surface pressure (Πmax) with increasing isocycles / change of Π-A profile / take-off through repeated isocycles / surface activity of pure film: 35° C.; for surface area per molecule on take-off: pure film, estimated; for surface activity of pure film: 7.5 nmol film
Method: as §3
The surface characteristics of (O-oleoyl)-ω-hydroxypalmitic acid were compared with palmityl oleate (a structurally similar wax ester) and oleic acid (which is equivalent to the fatty acid (amphiphilic) component of (O-oleoyl)-ω-hydroxypalmitic acid).
Films were formed by spreading 7.5 nmol of the lipids dissolved in chloroform onto the cleaned surface (air-buffer interface) of an artificial tear buffer (NaCl: 6.63 g/L, KCl: 1.72 g/L, NaHCO3: 1.38 g/L, CaCl2.2H2O: 0.15 g/L, NaH2PO4×H2O: 0.10 g/L and MOPS: 4.18 g/L dissolved in ion exchange ultrapure water) in a double barrier 80 mL temperature-controlled (35° C.) Langmuir trough (Nima Technology Ltd, UK). After 5 isocycles were obtained, the temperature was lowered to 20° C. A Whilhelmy balance (Whatman No. 1 filter paper) was used to record surface pressure during isocycles (79 cm^2-16 cm^2 at 10 cm^2/min).

[6] = Π-A measurements of meibomian lipids from a patient with dry eye disease mixed with a compound of formula (I) (Example 5, FIG. 3); format: physicochemical, human; details: dry eye patient meibomian lipids with 3 μL compound
Method: as §2

[7] = meibomian lipids (20 μL) mixed with 3-5 μL compound, FIG. 2

- film collapse during compression/expansion cycles (take-off position) [1]: collapse
Compound: CC/C=C\C/C=C\C/C=C\CCCCCCCC(=O)OCCCCCCCCCCCCCCCCCC [steroyl linolenate wax ester, steroyl linolenate]

- film collapse during compression/expansion cycles (take-off position) [1]: collapse
- change of Πmax in subsequent isocycles [4]: marked increase
- Πmax in the first isocycle versus meibomian lipid films alone [4]: did not influence
- change of maximum surface pressure (Πmax) with increasing isocycles ([5]; FIG. 4): increase in maximum surface pressure
- change of Π-A profile / take-off through repeated isocycles ([5]; FIG. 4): slow shift in the Π-A curve to the left
- area per molecule at flattening of the Π-A curve ([5]; assuming the film is a monolayer up to this point, FIG. 4): about 60 Å^2
- surface area per molecule on take-off [5]: 82 Å^2 per molecule
Compound: CCCCCCCC/C=C\CCCCCCCC(=O)OCCCCCCCCCCCCCCCC [palmityl oleate, reference compound]
- microscopic appearance of meibomian film mixed with lipid [3]: did not appear substantially different from pure meibomian lipid films

- film collapse during compression/expansion cycles (take-off position) [1]: collapse
Compound: CCCCCCCCCCCCCCCCCC(=O)OCCCCCCCCCCCCCCCC [palmityl stearate wax ester, palmityl stearate]

The next lines start with the molecule.

Compound: CCCCCCCC/C=C\CCCCCCCC(=O)OCCCCCCCCCC(=O)O [(O-oleoyl)-10-hydroxycaprinic acid, (O)-oleoyl-10-hydroxydecanoic acid]
- stabilisation of meibomian lipid film [2, 7]: stabilise the films

Compound: CCCCCCCC/C=C\CCCCCCCC(=O)OCCCCCCCCCCCCCCCC(=O)O [(O-oleoyl)-16-hydroxypalmitic acid]
- stabilisation of meibomian lipid film [2, 7]: stabilise the films
- film collapse during compression/expansion cycles (take-off position) [1]: do not collapse
- change of Πmax in subsequent isocycles [4]: small increase
- Πmax in the first isocycle versus meibomian lipid films alone [4]: higher
- hysteresis of pressure/area curve [6]: increase in hysteresis
- surface pressure of film [6]: increases the surface pressure
- surface activity of pure film ([5]; listed as (O-oleoyl)-w-hydroxypalmitic acid): as surface active as oleic acid films
- surface activity of pure film ([5]; listed as (O-oleoyl)-ω-hydroxypalmitic acid): very surface active; also recorded: much more surface active
- change of Π-A profile / take-off through repeated isocycles ([5]; FIG. 4): little change in its profile
- surface area covered by pure film ([5]; compared with palmityl oleate or oleic acid): much larger surface area than either palmityl oleate or oleic acid
- surface area per molecule on take-off [5]: 131 Å^2 per molecule

Compound: CCCCCCCC/C=C\CCCCCCCC(=O)O [oleic acid, reference compound]
- microscopic appearance of meibomian film mixed with lipid [3]: did not appear substantially different from pure meibomian lipid films
- change of Πmax in subsequent isocycles [4]: decreased
- Πmax in the first isocycle versus meibomian lipid films alone [4]: higher
- change of maximum surface pressure (Πmax) with increasing isocycles ([5]; FIG. 4): decreases
- change of Π-A profile / take-off through repeated isocycles ([5]; FIG. 4): decreases in take-off

Compound: CCCCCCCCCCCCCCCCCC(=O)OCCCCCCCCCCCCCCCC(=O)O [(O-stearyl)-16-hydroxypalmitic acid, (O)-stearyl-16-hydroxypalmitic acid]
- stabilisation of meibomian lipid film [2]: stabilise the films
- film collapse during compression/expansion cycles (take-off position) [1]: do not collapse
